# Patent US20090054403A1, “Treatment of Post-Traumatic Stress Disorder” (priority 2007, published 2009)
# What was measured:
# body core temperature = assay: Body core temperature during 10 day chronic dosing; settings: b.i.d. oral: nepicastat 5, 15, 50 mg/kg; SKF-102698 50 mg/kg; clonidine 20 ug/kg; d-amphetamine 2 mg/kg; days 1, 5, 10
# Description: The effects of chronic dosing of nepicastat were examined. Between three and thirteen days prior to the first dosing day the rats were placed inside the startle apparatus and after a five minute acclimation period they were presented with a 118 dB noise burst on average once a minute (a variable inter-trial interval ranging between 30 and 90 seconds will be used) for 20 minutes. The startle responses were measured and a mean for the last twenty startle response was calculated for each rat.
# Rat body core temperatures were obtained by inserting the rectal probe 2 cm into the colon of each rat. Each rat's body core temperature was measured three times and the average of the three reading was calculated. Body core temperature readings were obtained immediately prior to the ten day chronic dosing schedule (to obtain a baseline), and three and half hour after the morning daily dose of nepicastat, and SKF-102698, and 15 minutes prior to the daily administration of clonidine and d-amphetamine, on dosing days one, five and ten. […] Both clonidine (an alpha2 agonist), and d-amphetamine (a dopamine releaser) were used as the positive controls for this assay.
# An overall one-way ANOVA with a main effect for treatment was performed at each time on the change from baseline for each animal. Subsequent t-tests were performed for each comparison of interest.
# plasma renin activity = assay: Plasma renin activity after 5 days oral dosing; type: in vivo, SHR; settings: 30 and 100 mg/kg/d p.o. for 5 days
# mice [1] = assay: Clinical observations, behavioral tests and rectal temperature after single oral dose; type: in vivo; settings: 30, 100, 300 mg/kg single oral, from 60 min
# Description: A single oral dose of vehicle or Nepicastat formulation was administered by gavage to each mouse using a rodent intubator. The oral route was selected because it is a proposed clinical route of administration. Dose volumes were calculated on the basis of individual body weights recorded before dosing (body weight data are not tabulated in this report). Food and water were withheld from the mice 2.5 to 3.5 hours before dosing, instead of 1.5 hours as specified in the protocol.
# Clinical observations were recorded before dosing. Beginning 60 minutes after dosing, mice in each treatment group were evaluated in groups of up to 3 over an interval of approximately 10 minutes each for clinical observations and protocol-specified behavioral tests.^1 One mouse in the 30-mg/kg group and 1 mouse in the 100-mg/kg group died after dosing and they were removed from the study. Surviving mice were euthanatized and removed from the study at the end of the observation/testing period.
# Mice in groups of 6 males each were administered single oral doses of 0 (vehicle), 30, 100, or 300 mg/kg of nepicastat by gavage. Clinical observations and behavioral tests were initiated 60 minutes after administration of the test formulation. At the end of the observation period, all surviving mice were euthanatized and removed from the study.
# [2] = tested on: dopamine/norepinephrine ratio; assay: Dose response of tissue dopamine/norepinephrine ratio 6 hours after a single oral dose; type: in vivo, SHR
# [3] = tested on: tissue noradrenaline and dopamine content; assay: Tissue catecholamines in beagle dogs dosed b.i.d. for 4.5 days (0.05-5 mg/kg); type: in vivo
# Description: Male beagle dogs (10-16 kg, Marshall Farms USA Inc, North Rose, N.Y., USA) were used in the study. On the day of the study, dogs were weighed and randomly assigned to be orally dosed with either empty capsules (control) or the appropriate dose of nepicastat (0.05, 0.5, 1.5 or 5 mg.kg^−1; po, b.i.d.) […]. At six hours following the first dose on day-5, the dogs were euthanized with pentobarbital and the tissues (cerebral cortex, renal artery, left ventricle) were rapidly harvested. The tissues were subsequently processed and analysed for noradrenaline and dopamine as described above.
# Male beagle dogs (10-16 kg, Marshall Farms USA Inc, North Rose, N.Y.) were used in the study. On the day of the study, dogs were randomly assigned to receive either placebo (empty capsule) or the appropriate dose of 2a. Each dog was dosed twice a day for 4.5 days. 6 h after the first dose on day 5, the dogs were euthanized with pentobarbital and the tissues (cerebral cortex. renal artery, left ventricle) harvested, weighed, placed in iced 0.4 M perchloric acid, frozen in liquid nitrogen and stored at −70° C. until analysis. Tissue NE and DA concentrations were assayed by HPLC using electrochemical detection.
# [4] = tested on: mean arterial pressure, renal blood flow; assay: Arterial pressure and renal function in anesthetized SHR after iv dosing; type: in vivo; settings: 3.0 mg/kg i.v.
# [5] = tested on: tissue norepinephrine and dopamine levels; assay: Tissue catecholamines in iodine-deficient rats after 10 days b.i.d. dosing; type: in vivo, Sprague-Dawley rats; settings: day 10; for dopamine/norepinephrine ratio vs vehicle, mesenteric artery: hydrochloride
# Description: Male Sprague-Dawley rats, weighing 180-200 grams, were fed an iodine deficient diet (Purina, 5891C, Lot 1478, 0.066±0.042 mg iodine/kg sample) ad libitum 14 days prior to treatment. Animals were weighed and randomly assigned to one of the following treatment groups (n=12 per group): Nepicastat at 2.0 mg/kg, Nepicastat at 6.2 mg/kg, R, Methimazole at 1 mg/kg, or vehicle at 1 ml/kg. Each group of rats was dosed orally in the evening and the following morning, approximately 12 hours apart, for 10 consecutive days.
# At four hours after the second dose, on day 10, rats were anesthetized with halothane, decapitated, and the cortex, striatum, and mesenteric artery were harvested and weighed. Tissue samples were not harvested from the methimazole groups as they only served as positive controls for determination of thyroid function. The mesenteric artery, cortex, and striatum were immediately placed in 0.4M iced perchloric acid and analyzed for norepinephrine and dopamine levels the same day using HPLC.
# To statistically evaluate changes in T3 and T4 levels, a change from baseline was calculated from the day-3 time point. A non-parametric two-way within subject analysis of variance (ANOVA) was conducted. Also a one-way ANOVA was performed to detect if a significant difference from control occurred. Pairwise analyses between controls and each treatment group were carried out using Fisher's LSD strategy to control the experiment-wise error rate. For statistical analysis of catecholamine levels, a one-way ANOVA with factor DOSE was performed. Pairwise analyses between treated and controls at each dose were carried out using Fisher's LSD strategy to control the experiment-wise error rate.
# mice [6] = assay: Gross motor behavior and locomotor activity after acute dosing; type: in vivo
# [7] = tested on: sympathetically-evoked functional responses; assay: Sympathetically-evoked functional responses in anesthetized dogs; type: in vivo, beagle dogs
smiles,measurement,setting,value
"Fc1cc(F)cc(Cn2cc[nH]c2=S)c1 [SKF 102698, reference compound]",body core temperature,body core temperature,Lack of Effect
"Cl.NCc1c[nH]c(=S)n1[C@H]1CCc2c(F)cc(F)cc2C1 [nepicastat, (S)-5-Aminomethyl-1-(5,7-difluoro-1,2,3,4-tetrahydronaphth-2-yl)-2,3-dihydro-2-thioxo-1H-imidazole hydrochloride]",plasma renin activity,plasma renin activity,did not alter plasma renin activity
same,clinical or gross behavior changes,mice [1],No treatment-related clinical or gross behavior changes
same,rectal body temperature vs vehicle-control,mice [1],Lower body temperatures
same,"dose with significant change in dopamine/norepinephrine ratio, cerebral cortex",[2],10 mg/kg
same,"dose with significant change in dopamine/norepinephrine ratio, left ventricle",[2],3.0 mg/kg
same,"dose with significant change in dopamine/norepinephrine ratio, mesenteric artery",[2],0.3 mg/kg
same,"maximal increase in DA/NE ratio, artery (renal)",[3]; 5 mg/kg,95 fold
same,"maximal increase in DA/NE ratio, cerebral cortex",[3]; 5 mg/kg,80 fold
same,"maximal increase in DA/NE ratio, left ventricle",[3]; 5 mg/kg,151 fold
same,"decrease in noradrenaline, cerebral cortex",[3]; 5 mg/kg b.i.d. po,96%
same,"decrease in noradrenaline, left ventricle",[3]; 5 mg/kg b.i.d. po,91%
same,"decrease in noradrenaline, renal artery",[3]; 5 mg/kg b.i.d. po,88%
same,"increase in dopamine, cerebral cortex",[3]; 5 mg/kg b.i.d. po,166%
same,"increase in dopamine, left ventricle",[3]; 5 mg/kg b.i.d. po,700%
same,"increase in dopamine, renal artery",[3]; 5 mg/kg b.i.d. po,627%
same,doses at which catecholamine changes attained statistical significance (p<0.05),"[3]; renal artery, left ventricle, cerebral cortex",> 0.1 mg/kg/day
same,"renal blood flow, urine production, urinary sodium and potassium excretion",[4],did not lower renal blood flow or alter urine production or urinary excretion of sodium or potassium
same,mean arterial pressure,[4]; 3 hour period,decreased mean arterial pressure
same,"norepinephrine levels vs vehicle, cortex",[5]; 2.0 and 6.2 mg/kg b.i.d.,not significantly (p>0.05) different
same,"norepinephrine levels vs vehicle, mesenteric artery",[5]; 2.0 and 6.2 mg/kg b.i.d.,significantly (p<0.05) lower
same,"norepinephrine levels vs vehicle, striatum",[5]; 2.0 and 6.2 mg/kg b.i.d.,marginally (p<0.10) lower
same,"dopamine/norepinephrine ratio vs vehicle, mesenteric artery",[5]; 2.0 and 6.2 mg/kg b.i.d.,significantly (p<0.05) higher
same,"dopamine/norepinephrine ratio vs vehicle, mesenteric artery","[5]; 2.0 and 6.2 mg/kg b.i.d., listed as 2a",significantly raised
same,"dopamine/norepinephrine ratio vs vehicle, cortex and striatum","[5]; 2.0 and 6.2 mg/kg b.i.d., listed as RS-25560-197, hydrochloride",not significantly (p>0.05) different
same,"dopamine levels vs vehicle, cortex, striatum and mesenteric artery",[5]; 2.0 or 6.2 mg/kg b.i.d.,not significantly (p>0.05) different
same,gross motor behavior,"mice [6]; 1.0-30 mg/kg p.o., acute",no significant effects on gross motor behavior
same,locomotor activity,mice [6]; 10-100 mg/kg i.p.,did not effect locomotor activity
same,heart rate response to i.v. tyramine challenge,[7]; 10 mg/kg/d for 4.5 days,significantly reduced the increase in heart rate
same,inhibition of responses to renal nerve stimulation and carotid artery occlusion,"[7]; 30 mg/kg intraduodenally, up to 5 hours",did not significantly inhibit
